Experiment: gradient 5% acetonitrile 3 min, to 50% in 2 min, to 85% in 15 min, held 3 min, 100 µL/min
Conditions: column: Zorbax Extend-C18 2.1 x 50 mm; eluents: water / acetonitrile, 0.1% formic acid
How it was run: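 The mobile phases were water and acetonitrile, each with 0.1% formic acid, pumped at 100 μL/min through a Zorbax Extend-C18 column (2.1 × 50 mm, 1.8 μm). Pure standards were injected as mixtures of ~100 molecules and detected by a quadrupole time-of-flight mass spectrometer in positive and negative ionization mode. Retention time came from computationally picked adduct peaks, each inspected by hand.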

SMILES	RP-LC retention time
O=C(NCC1CC1)c1sc2ncccc2c1-n1cccc1	902 s
COc1cc2oc(=O)cc(C)c2cc1[N+](=O)[O-]	764 s
CCCN1C(=O)COc2ccc(-c3noc(-c4ccc(NC(C)=O)cc4)n3)cc21	948 s
c1cn(-c2ccc(-c3noc(-c4ccc5c(c4)OCO5)n3)cn2)cn1	853 s
Cc1ccc(-c2nc(-c3ccc4oc(C)nc4c3)no2)c(C)c1	1310 s
COc1ccc(S(=O)(=O)NCCc2ccc(N3CCCC3)cc2)cc1OC	776 s
CC(=O)c1ccc(N2CCN(C(=O)Cn3cccc3-c3nnc(C4CCC4)o3)CC2)cc1	824 s
COc1ccc2cc(C(=O)N3CCCN(c4cc(=O)n(C)c(=O)n4C)CC3)[nH]c2c1	688 s
CC(C)Cn1cc(S(=O)(=O)Nc2cc(F)cc(F)c2)c2cccnc21	994 s
Cc1ccsc1C(=O)N1[C@H]2CC[C@@H]1c1cnc(-c3ccccc3)nc1C2	982 s
COc1ccc(C)cc1NC(=O)N1C[C@@H]2C[C@H](NC(=O)c3cccs3)[C@H]1C2	827 s
Cc1cc(C)cc(Oc2nccn3c(=O)n(CC(=O)NC4CCCCC4)nc23)c1	905 s
CCOc1ccc(-c2noc(Cn3c(=O)n(-c4ccc(F)cc4)c(=O)c4sccc43)n2)cc1OC	940 s
CCCn1c(-c2cccc(C(=O)NCc3ccc(SC)cc3)c2)nc2cccnc21	874 s
COc1ccc(NC(=O)c2cc3c(s2)CN(C2CC2)C3)c(C)c1	783 s
O=C(NC1CCCCC1)C1(CCO)CC12CCN(c1ncccn1)CC2 (stereo not drawn)	651 s
COc1ccc2c(c1)C=C(C(=O)N1CCN(Cc3ccc(OC)c(OC)c3OC)CC1)CO2	682 s
Cc1cc(NC(=O)Nc2cccc3ccccc23)no1	896 s
COC(=O)C1CN(c2ccc(OC)cc2)N=C1C(C)=O (stereo not drawn)	850 s
Cc1noc(C)c1C(=O)N1CCCC1c1ccccc1Cl (stereo not drawn)	838 s
Cc1cc(CS(=O)(=O)c2ccccc2)cc(OCc2ccc(CN3CCC[C@@H]3CO)cc2)c1	788 s
Clc1cccc(CN2CCc3nc(N4CCN(c5ccccc5)CC4)ncc3C2)c1	775 s

SMILES	RP-LC retention time
CC(=O)N1CC(C)Oc2ccc(S(=O)(=O)N3CCC(c4ccncc4)CC3)cc21 (stereo not drawn)	572 s
CCN1CCN(c2cc(C(=O)O)c3cc(NS(=O)(=O)c4cc(C)ccc4C)ccc3n2)CC1	610 s
CC(C)Cc1nc2nccc(-c3ccc(F)cc3)n2n1	886 s
CN(C)S(=O)(=O)N1CCC(c2nnc(C(F)(F)F)o2)CC1	758 s
CCOC(=O)c1nc(NCc2ccccc2Cl)c2ccccc2n1	834 s
CC(C)Cn1nc2n(c1=O)CCN(S(=O)(=O)c1cccc3cccnc13)CC2	754 s
Cc1nc(-c2ccccc2OC2CN(S(=O)(=O)Cc3ccccc3)C2)no1	916 s
O=C(NCCc1c[nH]c2ccccc12)C1CCN(c2nnc(N3CCCCC3=O)s2)CC1	709 s
CC(=O)NCc1nc2ccccc2n1CC(=O)Nc1ccccc1	600 s
CCNC(=O)C1CCCN(c2nc3ncn(CC(=O)Nc4ccc(OCC)cc4)c(=O)c3s2)C1 (stereo not drawn)	688 s
CCS(=O)(=O)Nc1ccc(Nc2c3ccccc3nc3ccccc23)c(OC)c1	649 s
O=C(c1ccccc1Br)N1CCc2nc(-c3ccccc3)ncc2C1	963 s
Cc1ccc2oc(C(=O)Nc3ccnn3Cc3ccccc3)cc(=O)c2c1	835 s
CCCN1C(=O)COc2ccc(-c3csc(NC(=O)c4cccc(Cl)c4)n3)cc21	1150 s
COc1cc(NC(=O)Cc2csc3nc(-c4ccc(C)c(C)c4)cn23)cc(OC)c1	772 s
Cc1cc(C(=O)N2CCCn3ccnc3C2c2cnn(C)c2)c(C)o1 (stereo not drawn)	587 s
COCc1nnc(NC(=O)c2ccccc2OCc2nc(-c3ccc(C)cc3)no2)s1	1060 s
COc1cc(-c2nc(Nc3ccc(C)cc3)c3ccccc3n2)cc(OC)c1OC	796 s
Cn1nccc1C(=O)N1CC2CN(S(=O)(=O)c3cccc(F)c3)CC(C1)O2	693 s
N#Cc1ccc(S(=O)(=O)N2CCC(Cc3nc(-c4ccncc4)n[nH]3)C2)cc1 (stereo not drawn)	620 s
O=C(c1ccc2c(c1)N(Cc1ccccc1)CCS2)N1CCN(c2ccccn2)CC1	698 s
O=C(Cc1ccccc1Cl)Nc1nnc(C2CC(=O)N(c3ccc(F)cc3)C2)o1 (stereo not drawn)	705 s

SMILES	RP-LC retention time
CC(C(=O)N1CCN(c2cc(=O)n(C)c(=O)n2C)CC1)N1C(=O)COc2ccccc21 (stereo not drawn)	627 s
CCC(C(=O)Nc1c(-c2ccc(F)cc2)nc2cc(C)ccn12)c1ccccc1 (stereo not drawn)	745 s
Cc1ccccc1CN1CCC(CNS(=O)(=O)c2ccc3c(c2)CCCC(=O)N3)CC1	616 s
CC(NC(=O)C1CCCN(c2ccc(=O)n(-c3cccc(F)c3)n2)C1)c1ccccc1 (stereo not drawn)	868 s
COc1ccc(OC)c(S(=O)(=O)N2CCCOCCNC(=O)[C@@H]3CCC[C@@H]32)c1	720 s
COc1cccc(-c2noc(CSc3nccn3-c3ccccc3)n2)c1OC	857 s
O=C(Cc1ccc(NC(=O)Nc2ccc3c(c2)OCO3)cc1)NCC(F)(F)F	716 s
O=C(NCc1cccs1)NCC1CN(c2cccc(Cl)c2)C(=O)O1 (stereo not drawn)	731 s
CCn1cc(-c2nc(C(=O)Nc3ccccc3F)cs2)c2cccnc21	1130 s
Cc1cccc(OCc2nc(CCN(C)C(=O)Nc3ccccc3C)no2)c1	919 s
Cc1ccc(NC(=O)NCC2CCOCC2)c(Cl)c1	720 s
CCOc1ccc2ncc(S(=O)(=O)c3ccc(C)c(C)c3)c(N3CCN(CC)CC3)c2c1	693 s
COc1ccc(NC(=O)C2CC(=O)N(c3cccc(NC(C)=O)c3)C2)cc1Cl (stereo not drawn)	709 s
CCNc1ccccc1C(=O)O	782 s
CCOC(=O)c1nc(NCC2CCN(Cc3ccccc3F)CC2)c2ccccc2n1	598 s
CCCn1c(-c2cccc(C(=O)NCc3ccccc3C(F)(F)F)c2)nc2cccnc21	911 s
Cn1cnc2cc(CNC(=O)CCc3ccccc3)ccc21	604 s
O=C(CC1CCN(C(=O)c2ccc3oc(-c4ccccc4)nc3c2)CC1)N1CCOCC1	682 s
O=C1[C@@H]2[C@H]3CC[C@H](C3)[C@@H]2C(=O)N1C[C@@H]1CCCC[C@H]1CN1CCN(c2nsc3ccccc23)CC1	884 s
COCc1noc([C@@H]2CC(F)(F)CN2C(=O)C(C)C)n1	711 s
O=C(NCCCN1CCCC1=O)c1nc2ccccn2c1-c1ccc(F)cc1	656 s
COc1ccccc1CNS(=O)(=O)c1cc(-c2[nH]ncc2C(=O)N(C)C)oc1C	666 s

SMILES	RP-LC retention time
CNC(=O)CC1CCOC2(CCN(C(=O)C3CC3)CC2)C1 (stereo not drawn)	580 s
Cc1ccccc1NS(=O)(=O)c1cc2c(s1)CCN(C(=O)C1CC1)C2	822 s
CCCC(=O)N1CCCC1COc1ccc(C(=O)NC2CC2)cc1 (stereo not drawn)	717 s
O=C(C1CCN(c2cnc(N3CCCC3)nc2)CC1)N1CCOCC1	587 s
CCc1onc(C)c1C1CCCN1C(=O)CCc1ccccc1 (stereo not drawn)	846 s
O=C(Cc1nc(-c2ccccn2)n[nH]1)Nc1ccc(F)cc1F	652 s
Cc1cccc(CCNC(=O)C2CCCN(c3ncnc4c3nc3n4CCCCC3)C2)c1 (stereo not drawn)	819 s
COc1cccc(-n2nc(-c3nc(-c4ccccn4)no3)c3ccccc3c2=O)c1	1020 s
Cn1cc(-c2cc3n(n2)CCC(=O)N3CCCC(=O)N2CCN(c3ccccc3)CC2)c2ccccc21	859 s
COc1ccc(-c2cc(=O)n3c4ccccc4n(CC(=O)Nc4ccc5c(c4)OCO5)c3n2)cc1	720 s
O=C(O)CCC1CCN(S(=O)(=O)c2ccccc2)CC1	739 s
O=S(=O)(Cc1ccc(Cl)cc1)N1CCc2nc(-c3ccc(Cl)cc3)ncc2C1	1210 s
COC(=O)c1ccc(N2C=C(C#N)S(=O)(=O)c3ccc(C)cc32)cc1	887 s
CCOc1ccc(CCNC(=O)c2c(C)oc3nc(C)nc(N4CCCC4)c23)cc1	697 s
CCCS(=O)(=O)N1CC(=O)N(c2ccc(F)cc2F)C(C)(C(=O)NC2CCCCCC2)C1 (stereo not drawn)	979 s
CCn1cnc(S(=O)(=O)N2CCCC(C(=O)Nc3ccc(F)cc3)C2)c1 (stereo not drawn)	726 s
O=C(c1ccc(-c2cncnc2)nc1)N1CCN(c2ccccc2Cl)CC1	829 s
O=C(CSc1nnc2ccc(-c3cccnc3)nn12)NCc1cccs1	588 s
COc1ccc(NC(=O)CCc2c(C)nn(-c3cc(N(C)C)ncn3)c2C)cc1	733 s
N#Cc1cccc(CN2CCCCC2c2nncn2CC2CC2)c1 (stereo not drawn)	618 s
O=C1CCCc2cc(S(=O)(=O)N3CCCN(Cc4ccccc4Cl)C3)ccc2N1	750 s
Cc1cccc(NC(=O)N2CCC(n3cnc4ccc(C)cc4c3=O)CC2)c1	836 s
